Data reported in the OPERA property sets (Mansouri et al. 2018).

Details: for log10 BCF / log10 biotransformation half-life (days): fish

Structure (SMILES) | melting point | boiling point | other results
OCC(CO)(CO)CO | 260 °C | – | ready biodegradability: readily biodegradable; log10 BCF: 0.1
FB(F)c1ccccc1 | -36.2 °C | 98 °C | –
c1ccc(Cc2ccc3ccccc3c2)cc1 | 58 °C | 350 °C | –
CC(C)OC(C)(C)C | -88 °C | 87.6 °C | –
O=C(O)C(Cl)CCl (configuration not stated) | 50 °C | 210 °C | –
CCSc1nnc(C(C)(C)C)c(=O)n1N | 95 °C | – | log10 vapour pressure (mmHg): -5.12
CC1CCc2ccccc2C1 (configuration not stated) | -43.1 °C | 221 °C | –
C=CCCC(CC)CCCC (configuration not stated) | – | – | log10 biotransformation half-life (days): 0.93
CCOC(=O)COc1ccc2c(=O)cc(-c3ccccc3)oc2c1 | 124 °C | – | –
O=CNC(N1CCN(C(NC=O)C(Cl)(Cl)Cl)CC1)C(Cl)(Cl)Cl (configuration not stated) | – | – | log10 Koc (L/kg): 2.3; log10 vapour pressure (mmHg): -6.7
O=C=Nc1ccc([N+](=O)[O-])cc1 | 57 °C | – | –
c1ccc(CCCc2ccccc2)cc1 | 6 °C | 300 °C | –
Cl[SiH2]c1ccccc1 | – | 162 °C | –
CCOC(OCC)(OCC)OCC | – | 160 °C | –
Cc1cc(C)c(C(=O)O)c(C)c1 | 154 °C | – | –
CCC/C=C/CCCCCC | -80.3 °C | 193 °C | –
NC(=O)c1ccncc1 | 156 °C | – | –
CCOP(=S)(OCC)Oc1cc(C)nc(C(C)C)n1 | – | – | log10 Henry constant (atm·m³/mol): -6.95; log10 Koc (L/kg): 2.75; log10 vapour pressure (mmHg): -4.05; ready biodegradability: not readily biodegradable; log10 BCF: 1.85; log10 biotransformation half-life (days): 0.07
CNCCCC12CCC(c3ccccc31)c1ccccc12 | 93 °C | – | –
CCOC(N)=O | 49 °C | 185 °C | log10 vapour pressure (mmHg): -0.582; ready biodegradability: not readily biodegradable
Cc1ccccc1Oc1ccccc1 | 21.7 °C | 264 °C | –
Clc1ccc(Cl)c(Cl)c1 | 17 °C | 214 °C | log10 Henry constant (atm·m³/mol): -2.85; log10 Koa: 4.95; log10 Koc (L/kg): 3.1; log10 vapour pressure (mmHg): -0.337; ready biodegradability: not readily biodegradable; log10 BCF: 3.32; log10 biotransformation half-life (days): 1.2
Clc1cc(Cl)c(-c2cc(Cl)c(Cl)cc2Cl)cc1Cl | – | – | log10 Henry constant (atm·m³/mol): -4.64; log10 Koa: 9.73; log10 Koc (L/kg): 5.58; log10 vapour pressure (mmHg): -5.46; log10 BCF: 5.43; log10 biotransformation half-life (days): 2.55

Structure (SMILES) | melting point | boiling point | other results
C=CCCO | – | 114 °C | –
CC(Cl)(Cl)C(=O)Cl | – | 118 °C | –
CCCCCOC=O | -73.5 °C | 130 °C | –
CCOC(=O)c1cc2ccccc2[nH]1 | 124 °C | – | –
Clc1ccc(-c2ccccc2)cc1Cl | – | – | log10 Henry constant (atm·m³/mol): -3.85
CCOc1ccc(CC)cc1 | – | 210 °C | –
O=C(OC(=O)C(Cl)(Cl)Cl)C(Cl)(Cl)Cl | – | – | log10 vapour pressure (mmHg): -0.908
CCCS(=O)(=O)O | 7.5 °C | – | –
FC(Cl)C(F)(F)C(F)(F)Cl (configuration not stated) | – | 56.1 °C | log10 vapour pressure (mmHg): 2.46
CCCCC/C=C\C/C=C\C/C=C\C/C=C\CCCC(=O)O | -49.5 °C | – | –
CCC(=O)CC(C)CC (configuration not stated) | – | 159 °C | ready biodegradability: readily biodegradable
O=C1CCCCCCCC1 | 34 °C | – | –
CC(=O)C(C)O (configuration not stated) | 15 °C | 143 °C | –
CCN(N)CC | – | 99 °C | –
OCCNC(=S)C(=S)NCCO | 93.3 °C | – | –
C[C@]12CC[C@@H]3c4ccc(OC5CCCC5)cc4CC[C@H]3[C@@H]1C[C@@H](O)[C@@H]2O | 99 °C | – | –
CCCCCCCC#N | -45.6 °C | 205 °C | log10 vapour pressure (mmHg): -0.409
CCc1ccc(Cl)cc1 | -62.6 °C | 184 °C | –
O=C(CCC(=O)Oc1ccccc1)Oc1ccccc1 | 121 °C | 330 °C | –
N#Cc1ccc(C#N)cc1 | 224 °C | – | ready biodegradability: not readily biodegradable; log10 BCF: 0.3; log10 biotransformation half-life (days): -0.81
C[C@@H]1C[C@@H]([C@H](O)CC2CC(=O)NC(=O)C2)C(=O)[C@@H](C)C1 | 119 °C | – | ready biodegradability: readily biodegradable; log10 BCF: 0.45
COC(=O)CCCCCCCCCCCC(=O)OC | 36 °C | 332 °C | –
